Type in all cases: biochemical
One assay deals with EGFR (Homo sapiens (Human), UniProt P00533). Nature of the assay: Z'-LYTE / Adapta kinase assay, EGFR. The following applies: read-out: EGFR % Inh. @ 100 nM. An excerpt:
(§1) The Z′-LYTE® biochemical assay employs a fluorescence-based, coupled-enzyme format and is based on the differential sensitivity of phosphorylated and non-phosphorylated peptides to proteolytic cleavage (FIG. 6). The peptide substrate is labeled with two fluorophores one at each end—that make up a FRET pair. In the primary reaction, the kinase transfers the gamma-phosphate of ATP to a single tyrosine, serine or threonine residue in a synthetic FRET-peptide. In the secondary reaction, a site-specific protease recognizes and cleaves non-phosphorylated FRET-peptides. Phosphorylation of FRET-peptides suppresses cleavage by the Development Reagent. Cleavage disrupts FRET between the donor (i.e., coumarin) and acceptor (i.e., fluorescein) fluorophores on the FRET-peptide, whereas uncleaved, phosphorylated FRET-peptides maintain FRET. A ratiometric method, which calculates the ratio (the Emission Ratio) of donor emission to acceptor emission after excitation of the donor fluorophore at 400 nm, is used to quantitate reaction progress.
(§2) A significant benefit of this ratiometric method for quantitating reaction progress is the elimination of well-to-well variations in FRET-peptide concentration and signal intensities. As a result, the assay yields very high Z′-factor values (>0.7) at a low percent phosphorylation.
(§3) Both cleaved and uncleaved FRET-peptides contribute to the fluorescence signals and therefore to the Emission Ratio. The extent of phosphorylation of the FRET-peptide can be calculated from the Emission Ratio.
(§4) Enzyme: The ADAPTA universal kinase assay is a homogenous, fluorescent based immunoassay for the detection of ADP. In contrast to ATP depletion assays, the ADAPTA assay is extremely sensitive to ADP formation such that a majority of the signal change occurs in the first 10-20% conversion of ATP to ADP. This makes the ADAPTA universal kinase assay ideally suited for use with low activity kinases.
(§5) The principle of the ADAPTA universal kinase assay is outlined below. The assay itself can be divided into two phases: a kinase reaction phase, and an ADP detection phase. In the kinase reaction phase, all components required for the kinase reaction are added to the well, and the reaction is allowed to incubate for 60 minutes.
(§6) Z′-LYTE® Assay Conditions:
(§7) Test Compounds: The Test Compounds are screened in 1% DMSO (final) in the well. For 10 point titrations, 3-fold serial dilutions are conducted from the starting concentration.
(§8) Peptide/Kinase Mixtures: All Peptide/Kinase Mixtures are diluted to a 2× working concentration in the appropriate Kinase Buffer.
(§9) ATP Solution: All ATP Solutions are diluted to a 4× working concentration in Kinase Buffer (50 mM HEPES pH 7.5, 0.01% BRIJ-35, 10 mM MgCl2, 1 mM EGTA). ATP Km apparent is previously determined using a Z′-LYTE® assay.
(§10) Development Reagent Solution: The Development Reagent is diluted in Development Buffer. […]
(§11) 2.5 μL—4× Test Compound or 100 nL 100× plus 2.4 μL kinase buffer. 2. 5 μL—2× Peptide/Kinase Mixture. 3. 2.5 μL—4× ATP Solution. 4. 30-second plate shake. 5. 60-minute Kinase Reaction incubation at room temperature. 6. 5 μL—Development Reagent Solution. 7. 30-second plate shake. 8. 60-minute Development Reaction incubation at room temperature. 9.

The target of the next assay is DNA-PK (Homo sapiens (Human), UniProt P78527). As to the kind of experiment: Z'-LYTE / Adapta kinase assay, DNA-PK. The following applies: read-out: DNA-PK % Inh. @ 100 nM.
Text: as §1, §2, §3, §4, §5, §6, §7, §8, §9, §10, §11

A further assay addresses PI3Ka (Homo sapiens (Human), UniProt P42336). Nature of the assay: Z'-LYTE / Adapta kinase assay, PI3Ka. The following applies: read-out: PI3Ka % Inh. @ 100 nM.
Text: as §1, §2, §3, §4, §5, §6, §7, §8, §9, §10, §11

PI3Ka, sequence (P42336 whole entry): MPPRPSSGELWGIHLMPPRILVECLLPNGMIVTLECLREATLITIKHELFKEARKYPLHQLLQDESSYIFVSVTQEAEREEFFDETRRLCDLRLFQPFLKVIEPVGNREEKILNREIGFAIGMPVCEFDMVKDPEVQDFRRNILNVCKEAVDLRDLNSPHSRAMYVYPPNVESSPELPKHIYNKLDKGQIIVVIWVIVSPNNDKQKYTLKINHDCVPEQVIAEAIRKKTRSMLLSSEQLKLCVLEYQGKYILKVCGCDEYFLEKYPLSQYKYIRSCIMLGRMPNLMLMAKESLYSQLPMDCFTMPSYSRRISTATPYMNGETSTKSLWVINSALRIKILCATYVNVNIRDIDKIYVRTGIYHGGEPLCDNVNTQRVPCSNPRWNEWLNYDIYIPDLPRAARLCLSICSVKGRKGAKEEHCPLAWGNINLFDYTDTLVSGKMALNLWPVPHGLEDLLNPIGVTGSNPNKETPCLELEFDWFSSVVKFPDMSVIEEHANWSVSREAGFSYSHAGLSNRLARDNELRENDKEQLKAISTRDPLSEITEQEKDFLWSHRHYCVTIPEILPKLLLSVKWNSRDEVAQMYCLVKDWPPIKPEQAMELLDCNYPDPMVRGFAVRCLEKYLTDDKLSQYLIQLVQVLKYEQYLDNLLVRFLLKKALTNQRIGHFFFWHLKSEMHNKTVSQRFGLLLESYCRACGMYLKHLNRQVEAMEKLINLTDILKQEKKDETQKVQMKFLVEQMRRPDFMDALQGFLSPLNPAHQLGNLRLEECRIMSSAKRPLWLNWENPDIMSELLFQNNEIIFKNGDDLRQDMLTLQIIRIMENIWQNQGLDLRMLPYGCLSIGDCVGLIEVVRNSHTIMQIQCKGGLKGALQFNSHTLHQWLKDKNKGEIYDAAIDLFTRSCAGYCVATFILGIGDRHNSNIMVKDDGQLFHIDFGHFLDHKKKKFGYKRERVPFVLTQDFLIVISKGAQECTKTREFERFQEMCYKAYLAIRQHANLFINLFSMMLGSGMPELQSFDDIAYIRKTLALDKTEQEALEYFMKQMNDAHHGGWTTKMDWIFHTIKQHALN
PI3Ka, sequence (P27986 whole entry partner): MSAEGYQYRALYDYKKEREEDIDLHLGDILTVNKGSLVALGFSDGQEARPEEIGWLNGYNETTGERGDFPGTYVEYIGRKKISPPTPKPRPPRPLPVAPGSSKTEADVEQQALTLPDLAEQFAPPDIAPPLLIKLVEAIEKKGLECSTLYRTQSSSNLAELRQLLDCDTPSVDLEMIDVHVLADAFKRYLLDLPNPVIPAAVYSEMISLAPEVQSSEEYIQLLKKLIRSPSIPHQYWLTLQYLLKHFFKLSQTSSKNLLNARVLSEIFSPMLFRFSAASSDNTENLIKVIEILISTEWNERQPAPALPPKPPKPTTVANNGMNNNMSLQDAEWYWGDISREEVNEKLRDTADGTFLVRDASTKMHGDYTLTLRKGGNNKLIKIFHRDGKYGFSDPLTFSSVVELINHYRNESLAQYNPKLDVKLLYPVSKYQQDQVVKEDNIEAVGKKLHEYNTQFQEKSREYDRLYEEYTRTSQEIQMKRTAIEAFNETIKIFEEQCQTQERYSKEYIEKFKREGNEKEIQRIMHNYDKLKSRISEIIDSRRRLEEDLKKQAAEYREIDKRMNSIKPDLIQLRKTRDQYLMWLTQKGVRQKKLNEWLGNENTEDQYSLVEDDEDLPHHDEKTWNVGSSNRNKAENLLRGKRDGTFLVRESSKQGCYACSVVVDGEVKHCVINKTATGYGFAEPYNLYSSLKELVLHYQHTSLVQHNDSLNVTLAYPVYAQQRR
EGFR, sequence (P00533 25-1210): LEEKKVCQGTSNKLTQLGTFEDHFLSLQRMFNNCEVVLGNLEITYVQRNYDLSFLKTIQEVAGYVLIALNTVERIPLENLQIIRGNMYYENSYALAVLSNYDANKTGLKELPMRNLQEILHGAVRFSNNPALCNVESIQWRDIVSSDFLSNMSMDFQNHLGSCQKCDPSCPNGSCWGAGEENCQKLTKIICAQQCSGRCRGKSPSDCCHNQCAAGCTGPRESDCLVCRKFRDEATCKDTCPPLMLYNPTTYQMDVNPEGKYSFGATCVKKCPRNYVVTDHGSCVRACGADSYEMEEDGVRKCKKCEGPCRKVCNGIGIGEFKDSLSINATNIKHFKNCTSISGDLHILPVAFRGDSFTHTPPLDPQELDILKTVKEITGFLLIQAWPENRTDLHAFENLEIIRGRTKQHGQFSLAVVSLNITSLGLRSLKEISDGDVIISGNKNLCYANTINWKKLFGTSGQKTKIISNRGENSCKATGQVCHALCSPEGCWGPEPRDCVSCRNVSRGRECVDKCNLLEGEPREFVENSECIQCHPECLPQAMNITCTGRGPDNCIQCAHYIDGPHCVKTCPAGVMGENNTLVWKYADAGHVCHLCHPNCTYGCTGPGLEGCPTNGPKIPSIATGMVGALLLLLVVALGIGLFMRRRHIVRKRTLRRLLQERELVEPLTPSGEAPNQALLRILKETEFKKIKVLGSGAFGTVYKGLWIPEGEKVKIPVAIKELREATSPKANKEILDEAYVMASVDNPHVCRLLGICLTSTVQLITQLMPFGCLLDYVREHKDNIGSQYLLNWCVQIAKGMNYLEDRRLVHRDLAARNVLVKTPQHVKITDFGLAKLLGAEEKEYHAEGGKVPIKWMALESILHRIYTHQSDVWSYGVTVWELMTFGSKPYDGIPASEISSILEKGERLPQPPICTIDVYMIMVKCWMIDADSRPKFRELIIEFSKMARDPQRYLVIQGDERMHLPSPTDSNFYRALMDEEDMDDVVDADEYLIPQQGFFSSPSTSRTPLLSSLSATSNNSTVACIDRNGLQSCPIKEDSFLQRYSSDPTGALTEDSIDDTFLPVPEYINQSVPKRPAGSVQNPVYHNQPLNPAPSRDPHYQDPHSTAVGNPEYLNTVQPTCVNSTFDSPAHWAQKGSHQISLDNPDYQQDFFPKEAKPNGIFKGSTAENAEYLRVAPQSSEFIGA

For the molecule `CC(Nc1ncnc2ccc(-c3cnc4[nH]ncc4c3)cc12)c1ccccc1` (centres unmarked) [Compound 8, N-(1-phenylethyl)-6-(1H-pyrazolo[3,4-b]pyridin-5-yl)quinazolin-4-amine], the inhibition at 0.1 µM lay within 80 to 90% on EGFR, 10 to 80% at DNA-PK and 10 to 80% at PI3Ka.

As to `Cc1nc2cc(-c3ccc4ncnc(NC(C)c5ccccc5)c4c3)cnc2[nH]1` (centres unmarked) [Compound 10, 6-(2-methyl-1H-imidazo[4,5-b]pyridin-6-yl)-N-(1-phenylethyl)quinazolin-4-amine], the inhibition at 0.1 µM on EGFR was in the range of 80 to 90%; at DNA-PK, 10 to 80%; on PI3Ka it was 10 to 80%.

`CC(Nc1ncnc2ccc(-c3cncc(C(C)(C)O)c3)cc12)c1ccccc1` (centres unmarked) [Compound 21, 2-[5-[4-(1-phenylethylamino)quinazolin-6-yl]-3-pyridyl]propan-2-ol]: the inhibition at 0.1 µM on EGFR lay in the range of 80 to 90%; at DNA-PK, 10 to 80%; on PI3Ka, 10 to 80%.

For the molecule `CC(Nc1ncnc2ccc(-c3cnc4[nH]nnc4c3)cc12)c1ccccc1` (centres unmarked) [Compound 24, N-(1-phenylethyl)-6-(3H-triazolo[4,5-b]pyridin-6-yl)quinazolin-4-amine], the values for the inhibition at 0.1 µM at EGFR, at DNA-PK and on PI3Ka were more than 90%, 10 to 80% and 10 to 80%, respectively.

Regarding `CC(Nc1ncnc2ccc(-c3cnc4cnn(C)c4c3)cc12)c1ccccc1` (centres unmarked) [Compound 27, 6-(1-methylpyrazolo[4,3-b]pyridin-6-yl)-N-(1-phenylethyl)quinazolin-4-amine], the inhibition at 0.1 µM on EGFR is 10 to 80%; at DNA-PK, 10 to 80%; at PI3Ka, less than 10%.

As to `CC(Nc1ncnc2ccc(-c3cnc(N)c(S(C)(=O)=O)c3)cc12)c1ccccc1` (centres unmarked) [Compound 31, 6-(6-amino-5-(methylsulfonyl)pyridin-3-yl)-N-(1-phenylethyl)quinazolin-4-amine], the inhibition at 0.1 µM was more than 90% on EGFR, more than 90% on DNA-PK and 80 to 90% at PI3Ka.

Regarding `CC(Nc1ncnc2ccc(-c3cnc4cncn4c3)cc12)c1ccccc1` (centres unmarked) [Compound 34, 6-(imidazo[1,5-a]pyrimidin-3-yl)-N-(1-phenylethyl)quinazolin-4-amine], the inhibition at 0.1 µM was more than 90% on EGFR, 80 to 90% at DNA-PK and more than 90% on PI3Ka.

For `CC(Nc1ncnc2ccc(-c3cnc(N)c(C(=O)N(C)C)c3)cc12)c1ccccc1` (centres unmarked) [Compound 36, 2-amino-N, N-dimethyl-5-[4-(1-phenylethylamino)quinazolin-6-yl] pyridine-3-carboxamide], the inhibition at 0.1 µM on EGFR, at DNA-PK and on PI3Ka was 10 to 80% throughout.

On to `CC(Nc1ncnc2ccc(-c3ccc4oc(N)nc4c3)cc12)c1ccccc1` (centres unmarked) [Compound 41, 5-[4-(1-phenylethylamino)quinazolin-6-yl]-1,3-benzoxazol-2-amine], for which the results for the inhibition at 0.1 µM at EGFR, at DNA-PK and on PI3Ka were more than 90%, less than 10% and 10 to 80%, respectively.

For the molecule `C[C@@H](Nc1c(C#N)cnc2ccc(-c3cnc4[nH]ncc4c3)cc12)c1ccccc1` [Compound 54R, 4-[[(1R)-1-phenylethyl]amino]-6-(1H-pyrazolo [3,4-b]pyridin-5-yl) quinoline-3-carbonitrile], the inhibition at 0.1 µM lay within 80 to 90% at EGFR, 10 to 80% on DNA-PK and 10 to 80% on PI3Ka.

On to `CS(=O)(=O)Nc1cc(-c2ccc3ncc(C#N)c(NC4c5ccccc5CC4O)c3c2)cnc1Cl` (centres unmarked) [Compound 103, N-[2-chloro-5-[3-cyano-4-[(2-hydroxyindan-1-yl)amino]-6-quinolyl]-3-pyridyl]methanesulfonamide], for which the inhibition at 0.1 µM is less than 10% on EGFR and more than 90% at DNA-PK.
